Key:
Histamine H3 receptor [1] = molecular target: Histamine H3 receptor (Rattus norvegicus, UniProt Q9QYN8); experiment: Binding affinity to rat histamine H3 receptor
Histamine H3 receptor [2] = molecular target: Histamine H3 receptor (Homo sapiens, UniProt Q9Y5N1); experiment: Binding affinity to human histamine H3 receptor
Histamine H2 receptor = Histamine H2 receptor (Homo sapiens, UniProt P25021); experiment: Binding affinity to human histamine H2 receptor
[3] = Ratio drug uptake in brain to plasma of rat at 5 mg/kg, po measured after 6 hrs; assay type: ADME, organism-based; design: dose 5 mg/kg, route oral; details: read-out: BPR
[4] = AUC (0 to t) in rat at 5 mg/kg, po; assay type: ADME, organism-based; design: dose 5 mg/kg, route oral; details: plasma
[5] = Half life in mouse liver microsomes; assay type: ADME, Microsome
Histamine H1 receptor = Histamine H1 receptor (Homo sapiens, UniProt P35367); experiment: Binding affinity to human histamine H1 receptor
Sequence of Histamine H1 receptor (P35367 whole entry): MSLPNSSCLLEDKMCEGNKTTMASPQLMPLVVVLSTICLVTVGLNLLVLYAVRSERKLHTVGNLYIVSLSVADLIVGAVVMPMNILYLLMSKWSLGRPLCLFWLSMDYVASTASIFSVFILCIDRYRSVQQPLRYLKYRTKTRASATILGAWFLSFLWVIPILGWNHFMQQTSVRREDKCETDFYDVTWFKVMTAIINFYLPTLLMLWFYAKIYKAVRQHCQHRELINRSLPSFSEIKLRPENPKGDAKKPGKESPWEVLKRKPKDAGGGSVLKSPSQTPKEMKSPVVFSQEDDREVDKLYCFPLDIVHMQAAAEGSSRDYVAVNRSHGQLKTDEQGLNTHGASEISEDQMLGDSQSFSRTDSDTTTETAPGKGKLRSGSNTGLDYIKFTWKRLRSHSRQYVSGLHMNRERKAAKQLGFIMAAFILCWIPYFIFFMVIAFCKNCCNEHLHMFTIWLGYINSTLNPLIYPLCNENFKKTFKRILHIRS

[6] = molecular target: T1, Alpha-1D adrenergic receptor (Homo sapiens) (UniProt P25100); experiment: Inhibition of adrenergic Alpha-1D receptor at 10 uM
T1 sequence (whole entry): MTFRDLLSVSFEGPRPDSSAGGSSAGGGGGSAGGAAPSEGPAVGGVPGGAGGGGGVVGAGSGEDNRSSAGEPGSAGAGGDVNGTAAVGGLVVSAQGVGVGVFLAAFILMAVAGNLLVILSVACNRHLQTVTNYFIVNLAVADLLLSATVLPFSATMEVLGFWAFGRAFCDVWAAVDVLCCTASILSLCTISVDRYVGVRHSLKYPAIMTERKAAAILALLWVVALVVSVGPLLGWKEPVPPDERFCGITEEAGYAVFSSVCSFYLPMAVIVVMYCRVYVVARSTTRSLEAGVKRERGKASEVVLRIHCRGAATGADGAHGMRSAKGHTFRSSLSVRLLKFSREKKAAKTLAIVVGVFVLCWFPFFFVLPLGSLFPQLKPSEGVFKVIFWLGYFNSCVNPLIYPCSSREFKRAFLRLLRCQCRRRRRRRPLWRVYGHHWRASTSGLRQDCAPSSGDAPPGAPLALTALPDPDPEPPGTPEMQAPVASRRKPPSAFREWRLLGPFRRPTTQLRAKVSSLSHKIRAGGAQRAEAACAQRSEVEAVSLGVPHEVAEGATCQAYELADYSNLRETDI

[7] = Half life in rat at 1 mg/kg, iv; assay type: ADME, organism-based; design: dose 1 mg/kg, route intravenous; details: in vivo
Rattus norvegicus = experiment: Inhibition of RAMH-induced dipsogenia in rat at 3 mg/kg, po; assay type: functional
[8] = Clearance in rat at 1 mg/kg, iv; assay type: ADME, organism-based; design: dose 1 mg/kg, route intravenous; details: in vivo
[9] = Cmax in rat at 5 mg/kg, po; assay type: ADME, organism-based; design: dose 5 mg/kg, route oral; details: in vivo
[10] = molecular target: T2, Alpha-2C adrenergic receptor (Homo sapiens) (UniProt P18825); experiment: Inhibition of adrenergic Alpha-2C receptor at 10 uM
T2 sequence (whole entry): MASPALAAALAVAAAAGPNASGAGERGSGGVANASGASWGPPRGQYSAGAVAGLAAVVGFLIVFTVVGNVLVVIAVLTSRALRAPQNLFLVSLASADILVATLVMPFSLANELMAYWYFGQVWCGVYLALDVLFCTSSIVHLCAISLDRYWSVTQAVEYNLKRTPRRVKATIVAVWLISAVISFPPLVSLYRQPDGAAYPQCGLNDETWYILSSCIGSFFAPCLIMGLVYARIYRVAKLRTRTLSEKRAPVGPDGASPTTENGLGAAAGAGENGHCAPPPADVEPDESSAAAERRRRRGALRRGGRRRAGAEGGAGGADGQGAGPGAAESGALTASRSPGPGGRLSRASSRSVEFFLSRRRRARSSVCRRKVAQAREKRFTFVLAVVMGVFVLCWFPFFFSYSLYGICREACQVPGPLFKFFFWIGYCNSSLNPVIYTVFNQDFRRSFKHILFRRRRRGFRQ

[11] = Half life in monkey liver microsomes; assay type: ADME, Macaca mulatta, Microsome; details: rhesus monkey
[12] = Half life in human liver microsomes; assay type: ADME, Microsome
[13] = Volume of distribution in rat at 1 mg/kg, iv; assay type: ADME, organism-based; design: dose 1 mg/kg, route intravenous; details: in vivo
[14] = Fraction unbound in rat brain homogenate; assay type: ADME, tissue-based
[15] = Inhibition of nACh receptor at 10 uM
Histamine H4 receptor = Histamine H4 receptor (Homo sapiens, UniProt Q9H3N8); experiment: Binding affinity to human histamine H4 receptor
Sequence of Histamine H4 receptor (Q9H3N8 whole entry): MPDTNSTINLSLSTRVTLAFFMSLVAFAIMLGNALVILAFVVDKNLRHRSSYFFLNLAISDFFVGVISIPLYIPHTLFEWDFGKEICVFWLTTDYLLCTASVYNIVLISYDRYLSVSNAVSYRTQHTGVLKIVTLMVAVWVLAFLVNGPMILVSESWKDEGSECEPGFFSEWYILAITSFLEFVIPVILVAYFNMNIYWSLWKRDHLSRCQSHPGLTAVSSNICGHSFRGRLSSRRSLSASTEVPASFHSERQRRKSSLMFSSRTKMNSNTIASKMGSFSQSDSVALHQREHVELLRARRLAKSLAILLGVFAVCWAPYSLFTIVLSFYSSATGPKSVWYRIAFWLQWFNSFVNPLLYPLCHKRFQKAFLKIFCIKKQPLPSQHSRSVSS

Cytochrome P450 2D6 = Cytochrome P450 2D6 (Homo sapiens, UniProt P10635); experiment: Inhibition of CYP2D6; assay type: ADME
Sequence of Cytochrome P450 2D6 (P10635 whole entry): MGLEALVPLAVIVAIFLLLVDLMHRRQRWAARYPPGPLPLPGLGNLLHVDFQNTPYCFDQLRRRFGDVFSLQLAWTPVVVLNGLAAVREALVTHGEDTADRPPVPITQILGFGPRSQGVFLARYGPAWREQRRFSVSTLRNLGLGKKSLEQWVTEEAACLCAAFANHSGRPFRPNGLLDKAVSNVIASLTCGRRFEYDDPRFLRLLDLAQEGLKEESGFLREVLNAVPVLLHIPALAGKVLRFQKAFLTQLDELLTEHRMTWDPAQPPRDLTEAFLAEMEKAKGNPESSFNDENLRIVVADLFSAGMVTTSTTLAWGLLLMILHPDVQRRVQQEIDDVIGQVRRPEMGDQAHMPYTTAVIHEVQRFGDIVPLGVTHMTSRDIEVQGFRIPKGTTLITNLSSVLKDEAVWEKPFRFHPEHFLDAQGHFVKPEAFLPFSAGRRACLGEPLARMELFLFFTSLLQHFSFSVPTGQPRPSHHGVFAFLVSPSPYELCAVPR

[16] = Oral bioavailability in rat at 5 mg/kg; assay type: ADME, organism-based; details: in vivo
[17] = Half life in rat liver microsomes; assay type: ADME, Microsome
[18] = Plasma protein binding in human; assay type: ADME, cell-free; details: read-out: PPB (converted)
[19] = Plasma protein binding in rat; assay type: ADME, cell-free; details: read-out: PPB (converted)
Cytochrome P450 2C19 = Cytochrome P450 2C19 (Homo sapiens, UniProt P33261); experiment: Inhibition of CYP2C19; assay type: ADME
Sequence of Cytochrome P450 2C19 (P33261 whole entry): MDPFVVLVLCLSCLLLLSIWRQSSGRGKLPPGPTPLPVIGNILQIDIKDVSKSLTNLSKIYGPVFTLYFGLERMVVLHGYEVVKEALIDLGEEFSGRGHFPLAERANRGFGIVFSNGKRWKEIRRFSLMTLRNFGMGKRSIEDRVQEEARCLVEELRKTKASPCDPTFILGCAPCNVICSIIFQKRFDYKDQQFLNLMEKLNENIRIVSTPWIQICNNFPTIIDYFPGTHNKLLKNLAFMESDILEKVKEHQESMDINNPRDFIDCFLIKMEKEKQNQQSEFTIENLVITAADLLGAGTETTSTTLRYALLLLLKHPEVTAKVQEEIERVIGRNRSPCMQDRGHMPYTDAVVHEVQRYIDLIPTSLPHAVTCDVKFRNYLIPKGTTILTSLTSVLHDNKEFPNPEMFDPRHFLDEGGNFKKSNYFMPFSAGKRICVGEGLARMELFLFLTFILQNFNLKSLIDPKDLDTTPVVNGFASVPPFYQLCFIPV

Cytochrome P450 1A2 = molecular target: T3, Cytochrome P450 1A2 (Homo sapiens, UniProt P05177); experiment: Inhibition of CYP1A2; assay type: ADME
T3 sequence (P05177 whole entry): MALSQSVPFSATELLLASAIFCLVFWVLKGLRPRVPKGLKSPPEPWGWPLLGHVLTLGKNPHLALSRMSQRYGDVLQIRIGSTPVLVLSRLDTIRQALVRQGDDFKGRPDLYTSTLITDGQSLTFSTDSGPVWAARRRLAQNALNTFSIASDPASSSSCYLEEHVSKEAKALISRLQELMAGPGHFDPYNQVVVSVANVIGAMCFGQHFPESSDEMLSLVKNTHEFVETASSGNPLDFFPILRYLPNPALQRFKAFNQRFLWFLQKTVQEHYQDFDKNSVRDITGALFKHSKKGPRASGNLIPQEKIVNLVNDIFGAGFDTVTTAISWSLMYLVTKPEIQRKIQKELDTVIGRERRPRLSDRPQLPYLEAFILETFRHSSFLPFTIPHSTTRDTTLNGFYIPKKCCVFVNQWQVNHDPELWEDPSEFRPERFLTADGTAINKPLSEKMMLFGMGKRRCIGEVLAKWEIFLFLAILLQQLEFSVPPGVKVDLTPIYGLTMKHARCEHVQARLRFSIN

Cytochrome P450 2C9 = Cytochrome P450 2C9 (Homo sapiens, UniProt P11712); experiment: Inhibition of CYP2C9; assay type: ADME
Sequence of Cytochrome P450 2C9 (P11712 whole entry): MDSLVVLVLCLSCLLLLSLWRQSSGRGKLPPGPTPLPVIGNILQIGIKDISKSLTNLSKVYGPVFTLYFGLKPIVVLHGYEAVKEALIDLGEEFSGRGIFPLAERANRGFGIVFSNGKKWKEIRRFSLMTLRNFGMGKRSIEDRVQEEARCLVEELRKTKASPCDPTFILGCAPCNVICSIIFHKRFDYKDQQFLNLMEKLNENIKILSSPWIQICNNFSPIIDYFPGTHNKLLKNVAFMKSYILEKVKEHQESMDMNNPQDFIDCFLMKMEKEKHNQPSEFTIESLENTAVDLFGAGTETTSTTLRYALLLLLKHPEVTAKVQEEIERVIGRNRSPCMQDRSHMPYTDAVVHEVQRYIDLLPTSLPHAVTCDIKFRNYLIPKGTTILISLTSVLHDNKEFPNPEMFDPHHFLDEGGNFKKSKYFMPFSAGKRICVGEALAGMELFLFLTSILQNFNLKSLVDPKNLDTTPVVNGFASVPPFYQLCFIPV

Cytochrome P450 3A4 = Cytochrome P450 3A4 (Homo sapiens, UniProt P08684); experiment: Inhibition of CYP3A4; assay type: ADME
Sequence of Cytochrome P450 3A4 (P08684 whole entry): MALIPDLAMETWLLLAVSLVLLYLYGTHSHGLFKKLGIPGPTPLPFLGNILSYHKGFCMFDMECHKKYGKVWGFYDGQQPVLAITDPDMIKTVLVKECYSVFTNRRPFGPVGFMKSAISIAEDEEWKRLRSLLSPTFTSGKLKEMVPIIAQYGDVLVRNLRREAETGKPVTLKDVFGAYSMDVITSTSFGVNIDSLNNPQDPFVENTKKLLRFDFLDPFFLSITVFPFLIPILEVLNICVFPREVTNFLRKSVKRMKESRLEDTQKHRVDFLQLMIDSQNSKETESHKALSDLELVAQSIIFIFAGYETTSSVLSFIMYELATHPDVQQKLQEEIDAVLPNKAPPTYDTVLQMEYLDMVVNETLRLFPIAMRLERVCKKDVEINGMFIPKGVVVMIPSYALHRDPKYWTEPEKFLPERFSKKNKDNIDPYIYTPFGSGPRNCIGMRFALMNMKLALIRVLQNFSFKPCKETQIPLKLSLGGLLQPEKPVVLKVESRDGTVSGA

Sequence of Histamine H3 receptor (Homo sapiens, UniProt Q9Y5N1) (Q9Y5N1 whole entry): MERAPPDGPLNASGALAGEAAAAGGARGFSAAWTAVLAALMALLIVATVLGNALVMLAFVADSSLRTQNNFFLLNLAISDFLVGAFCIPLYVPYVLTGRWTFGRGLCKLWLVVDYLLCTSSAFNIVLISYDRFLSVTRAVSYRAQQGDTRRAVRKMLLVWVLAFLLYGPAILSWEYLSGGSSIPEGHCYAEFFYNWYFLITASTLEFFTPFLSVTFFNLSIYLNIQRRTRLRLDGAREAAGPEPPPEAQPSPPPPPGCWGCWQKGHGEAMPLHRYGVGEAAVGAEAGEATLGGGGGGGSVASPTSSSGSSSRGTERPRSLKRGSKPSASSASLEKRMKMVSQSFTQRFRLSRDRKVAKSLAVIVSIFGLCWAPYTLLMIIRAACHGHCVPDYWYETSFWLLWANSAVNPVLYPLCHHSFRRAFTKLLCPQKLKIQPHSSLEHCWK
Sequence of Histamine H3 receptor (Rattus norvegicus, UniProt Q9QYN8) (Q9QYN8 whole entry): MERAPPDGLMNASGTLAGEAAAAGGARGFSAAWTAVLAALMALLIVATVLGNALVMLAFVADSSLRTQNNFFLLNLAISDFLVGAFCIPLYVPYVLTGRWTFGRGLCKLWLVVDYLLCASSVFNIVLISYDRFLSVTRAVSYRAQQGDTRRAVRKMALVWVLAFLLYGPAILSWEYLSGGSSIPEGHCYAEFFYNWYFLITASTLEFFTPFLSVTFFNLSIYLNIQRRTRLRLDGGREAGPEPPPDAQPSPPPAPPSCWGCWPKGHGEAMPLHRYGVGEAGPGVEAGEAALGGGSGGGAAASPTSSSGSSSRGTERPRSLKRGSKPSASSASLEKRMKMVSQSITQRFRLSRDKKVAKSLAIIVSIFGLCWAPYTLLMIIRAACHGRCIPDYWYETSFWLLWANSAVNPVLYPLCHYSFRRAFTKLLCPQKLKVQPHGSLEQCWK
Sequence of Histamine H2 receptor (P25021 whole entry): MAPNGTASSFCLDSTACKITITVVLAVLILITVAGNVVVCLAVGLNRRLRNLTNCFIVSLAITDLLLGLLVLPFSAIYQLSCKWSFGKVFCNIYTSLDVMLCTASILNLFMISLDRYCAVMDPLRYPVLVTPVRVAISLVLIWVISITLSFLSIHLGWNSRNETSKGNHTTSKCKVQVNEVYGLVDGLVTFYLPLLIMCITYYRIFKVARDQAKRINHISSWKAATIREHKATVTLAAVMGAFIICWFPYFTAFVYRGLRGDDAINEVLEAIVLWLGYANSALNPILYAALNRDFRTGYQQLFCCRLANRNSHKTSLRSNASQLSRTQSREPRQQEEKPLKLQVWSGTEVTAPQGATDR

Structure (SMILES): c1cc2c(cc1OCC1CCCO1)CCC1(CCN(C3CCC3)CC1)O2 (stereo not drawn)
- Ki (Histamine H3 receptor [1]): 50 nM
- Ki (Histamine H3 receptor [2]): 16 nM

Structure (SMILES): c1cc2c(cc1O[C@@H]1CCOC1)CCC1(CCN(C3CCC3)CC1)O2
- Ki (Histamine H3 receptor [1]): 119 nM
- Ki (Histamine H3 receptor [2]): 27 nM

Structure (SMILES): O=S1(=O)CCC(Oc2ccc3c(c2)CCC2(CCN(C4CCC4)CC2)O3)CC1
- Ki (Histamine H2 receptor): > 10000 nM
- Kp at 6 h [3]: 1
- AUC(0-t) [4]: 1790 ng·h/mL
- half-life [5]: > 40 min
- Ki (Histamine H1 receptor): > 10000 nM
- inhibition [6]: 50%
- half-life [7]: 102 min
- Ki (Histamine H3 receptor [1]): 24 nM
- inhibition in vivo at 3 mg/kg (Rattus norvegicus): 61%
- clearance [8]: 19 mL/min/kg
- Cmax [9]: 460 ng/mL
- inhibition [10]: 78%
- half-life [11]: > 40 min
- Ki (Histamine H3 receptor [2]): 7 nM
- half-life [12]: > 40 min
- Vd [13]: 2.8 L/kg
- fraction unbound [14]: 0.27
- inhibition [15]: 63%
- Ki (Histamine H4 receptor): > 10000 nM
- IC50 (Cytochrome P450 2D6): 6600 nM
- bioavailability [16]: 48%
- half-life [17]: > 40 min
- fraction unbound [18]: 0.23
- fraction unbound [19]: 0.27

Structure (SMILES): c1cc2c(cc1OC1CCSC1)CCC1(CCN(C3CCC3)CC1)O2 (stereo not drawn)
- Ki (Histamine H3 receptor [1]): 42 nM
- Ki (Histamine H3 receptor [2]): 17 nM

Structure (SMILES): CC(O)COc1ccc2c(c1)CCC1(CCN(C3CCC3)CC1)O2 (stereo not drawn)
- Ki (Histamine H3 receptor [1]): 99 nM
- Ki (Histamine H3 receptor [2]): 25 nM

Structure (SMILES): CC[C@H](O)COc1ccc2c(c1)CCC1(CCN(C3CCC3)CC1)O2
- Ki (Histamine H3 receptor [1]): 112 nM
- Ki (Histamine H3 receptor [2]): 26 nM

Structure (SMILES): O=S1(=O)CCC(COc2ccc3c(c2)CCC2(CCN(C4CCC4)CC2)O3)CC1
- Ki (Histamine H2 receptor): > 10000 nM
- Kp at 6 h [3]: 0.73
- AUC(0-t) [4]: 713 ng·h/mL
- half-life [5]: > 40 min
- Ki (Histamine H1 receptor): > 10000 nM
- half-life [7]: 114 min
- Ki (Histamine H3 receptor [1]): 9 nM
- clearance [8]: 23 mL/min/kg
- Cmax [9]: 157 ng/mL
- half-life [11]: > 40 min
- Ki (Histamine H3 receptor [2]): 4 nM
- half-life [12]: > 40 min
- Vd [13]: 3.6 L/kg
- Ki (Histamine H4 receptor): > 10000 nM
- IC50 (Cytochrome P450 2D6): 11000 nM
- bioavailability [16]: 22%
- half-life [17]: > 40 min

Structure (SMILES): CSCCCOc1ccc2c(c1)CCC1(CCN(C3CCC3)CC1)O2
- Ki (Histamine H3 receptor [1]): 64 nM
- Ki (Histamine H3 receptor [2]): 15 nM

Structure (SMILES): COCCOc1ccc2c(c1)CCC1(CCN(C3CCC3)CC1)O2
- Ki (Histamine H3 receptor [1]): 91 nM
- Ki (Histamine H3 receptor [2]): 42 nM

Structure (SMILES): CS(=O)(=O)CCCOc1ccc2c(c1)CCC1(CCN(C3CCC3)CC1)O2
- Ki (Histamine H2 receptor): > 10000 nM
- IC50 (Cytochrome P450 2C19): > 30000 nM
- Kp at 6 h [3]: 0.73
- AUC(0-t) [4]: 586 ng·h/mL
- half-life [5]: > 40 min
- IC50 (Cytochrome P450 1A2): > 30000 nM
- Ki (Histamine H1 receptor): > 10000 nM
- half-life [7]: 54 min
- Ki (Histamine H3 receptor [1]): 41 nM
- clearance [8]: 16 mL/min/kg
- Cmax [9]: 142 ng/mL
- half-life [11]: > 40 min
- Ki (Histamine H3 receptor [2]): 10 nM
- half-life [12]: > 40 min
- Vd [13]: 1.2 L/kg
- IC50 (Cytochrome P450 2C9): > 30000 nM
- Ki (Histamine H4 receptor): > 10000 nM
- IC50 (Cytochrome P450 2D6): > 30000 nM
- bioavailability [16]: 13%
- half-life [17]: > 40 min
- IC50 (Cytochrome P450 3A4): > 30000 nM

Structure (SMILES): c1cc2c(cc1OCC1CCOC1)CCC1(CCN(C3CCC3)CC1)O2 (stereo not drawn)
- Ki (Histamine H3 receptor [1]): 49 nM
- Ki (Histamine H3 receptor [2]): 18 nM

Structure (SMILES): c1cc2c(cc1OC1CCSCC1)CCC1(CCN(C3CCC3)CC1)O2
- Ki (Histamine H3 receptor [1]): 62 nM
- Ki (Histamine H3 receptor [2]): 23 nM

Structure (SMILES): c1cc2c(cc1OC1CCOCC1)CCC1(CCN(C3CCC3)CC1)O2
- Ki (Histamine H3 receptor [1]): 42 nM
- Ki (Histamine H3 receptor [2]): 15 nM

Structure (SMILES): CS(=O)(=O)CCOc1ccc2c(c1)CCC1(CCN(C3CCC3)CC1)O2
- Ki (Histamine H3 receptor [1]): 157 nM
- Ki (Histamine H3 receptor [2]): 39 nM

Structure (SMILES): CSCCOc1ccc2c(c1)CCC1(CCN(C3CCC3)CC1)O2
- Ki (Histamine H3 receptor [1]): 86 nM
- Ki (Histamine H3 receptor [2]): 38 nM

Structure (SMILES): c1cc2c(cc1OCC1CCSCC1)CCC1(CCN(C3CCC3)CC1)O2
- Ki (Histamine H3 receptor [1]): 48 nM
- Ki (Histamine H3 receptor [2]): 12 nM

Structure (SMILES): O=S1(=O)CCC(Oc2ccc3c(c2)CCC2(CCN(C4CCC4)CC2)O3)C1 (stereo not drawn)
- Ki (Histamine H3 receptor [1]): 44 nM
- Ki (Histamine H3 receptor [2]): 23 nM

Structure (SMILES): OCCOc1ccc2c(c1)CCC1(CCN(C3CCC3)CC1)O2
- Ki (Histamine H3 receptor [1]): 368 nM
- Ki (Histamine H3 receptor [2]): 126 nM

Structure (SMILES): CC[C@@H](O)COc1ccc2c(c1)CCC1(CCN(C3CCC3)CC1)O2
- Ki (Histamine H3 receptor [1]): 86 nM
- Ki (Histamine H3 receptor [2]): 15 nM

Structure (SMILES): CC(C)(O)COc1ccc2c(c1)CCC1(CCN(C3CCC3)CC1)O2
- Ki (Histamine H3 receptor [1]): 74 nM
- Ki (Histamine H3 receptor [2]): 18 nM

Structure (SMILES): c1cc2c(cc1O[C@H]1CCOC1)CCC1(CCN(C3CCC3)CC1)O2
- Ki (Histamine H3 receptor [1]): 39 nM
- Ki (Histamine H3 receptor [2]): 15 nM
